According to patent publication US20260200919A1, “SUBSTITUTED AMINOPYRIDINE COMPOUNDS AND METHODS OF TREATING DISEASE USING SAME” (Atavistik Bio, Inc., priority 2023, published 2026):

Experiments:
[1] = molecular target: T1, human recombinant kinase full-length AKT1 E17K (Homo sapiens, UniProt P31749, E17K); test: AKT1 E17K kinase assay (TR-FRET, Lance); type: biochemical; conditions: 0.6 nM AKT1 E17K, 50 nM Ulight-CREBtide, either 50 μM ATP or 2 mM ATP (not specified which), 60 min at RT
T1 construct: Purified human recombinant kinase full-length AKT1 E17K was expressed in insect cells; made in house; host or cells: insect cells
T1 sequence (P31749 whole entry E17K): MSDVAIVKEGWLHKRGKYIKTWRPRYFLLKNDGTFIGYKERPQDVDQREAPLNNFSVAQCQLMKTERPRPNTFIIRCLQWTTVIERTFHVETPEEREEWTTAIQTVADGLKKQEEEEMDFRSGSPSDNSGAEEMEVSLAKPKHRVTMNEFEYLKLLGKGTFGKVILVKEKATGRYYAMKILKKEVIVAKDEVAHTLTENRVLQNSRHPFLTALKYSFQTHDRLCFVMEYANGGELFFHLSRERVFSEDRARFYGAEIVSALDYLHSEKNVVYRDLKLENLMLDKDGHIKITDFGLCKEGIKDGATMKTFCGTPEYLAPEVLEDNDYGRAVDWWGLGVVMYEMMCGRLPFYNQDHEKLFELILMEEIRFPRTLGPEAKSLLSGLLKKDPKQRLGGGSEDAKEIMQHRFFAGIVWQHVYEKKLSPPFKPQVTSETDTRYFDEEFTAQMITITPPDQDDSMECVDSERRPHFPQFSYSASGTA
Description: AKT1 E17K kinase assay: Inhibitory effects of compounds on AKT1 E17K were undertaken in a 10-pt dose response kinase activity assay measuring phospho-peptide product formation based on TR-FRET signal as described in the following paragraph.
(§1) Purified human recombinant kinase full-length AKT1 E17K was expressed in insect cells and activated in vitro by PDPK1. Ulight™-CREBtide (PerkinElmer, catalog number TRF0107) was used as the peptide substrate. The reaction buffer consisted of 50 mM HEPES pH 7.5, 10 mM MgCl2, 0.01% Triton X-100, 0.01% BSA, 2 mM DTT, 0.6 nM AKT1 E17K, 50 nM. Ulight™ CREBtide and either 50 μM ATP or 2 mM ATP. The compound solution was prepared as 10 mM DMSO stock. […] Final DMSO concentration in the assay was 1%. […] The reaction was stopped after 60 min of incubation at RT by the addition of 10 μL of Detection Mix (PerkinElmer, #CR97-100) consisting of Europium-anti-phospho-CREB (Ser133) (Perkin Elmer, catalog numberTRF0200). Incubation with the detection mix for a further 60 min allowed binding of antibody to the phospho-Ulight™ CREBtide. The fluorescence emissions at 620 nm and 665 nm after excitation at […] was measured using Envision reader. The ratio of the emissions at 665 nm and at 620 nm provided the measure for the amount of phosphorylated CREBtide product of AKT1 E17K kinase activity.

[2] = molecular target: T2, human recombinant kinase full-length wildtype AKT1 (Homo sapiens, UniProt P31749); test: AKT1 kinase assay (wildtype, TR-FRET, Lance); type: biochemical; conditions: 0.6 nM wildtype AKT1, 50 nM Ulight-CREBtide, either 50 μM ATP or 2 mM ATP (not specified which), 60 min at RT
T2 construct: Purified human recombinant kinase full-length wildtype AKT1 was expressed in insect cells; made in house; host or cells: insect cells
T2 sequence (P31749 whole entry): as the sequence (P31749 whole entry E17K) above, with K17E counted along it
Description: AKT1 kinase assay: Inhibitory effects of compounds on wildtype AKT1 were undertaken in a 10-pt dose response kinase activity assay measuring phospho-peptide product formation based on TR-FRET signal as described in the following paragraph.
as §1, with “full-length wildtype” for “full-length”, “AKT1” for “AKT1 E17K”, “Ulight™—CREBtide” for “Ulight™-CREBtide”, “AKT1,” for “AKT1 E17K,”, “nM Ulight™-CREBtide” for “nM. Ulight™ CREBtide”

Row | IC50 [1] [nM] | IC50 [2] [nM] | SMILES
1 | > 500 | < 500 | COC(=O)Cc1cccc(C(=O)NCc2ccc(-n3c(-c4cccnc4N)nc4ccc(-c5ccccc5)nc43)cc2)c1F [Compound 33, methyl 2-(3-((4-(2-(2-aminopyridin-3-yl)-5-phenyl-3H-imidazo[4,5-b]pyridin-3-yl)benzyl)carbamoyl)-2-fluorophenyl)acetate]
2 | > 500 | > 500 | Nc1ncccc1-c1nc2ccc(-c3ccccc3)nc2n1-c1ccc(C2CN(C(=O)c3ccccc3C(=O)O)C2)cc1 [Compound 74, 2-(3-(4-(2-(2-aminopyridin-3-yl)-5-phenyl-3H-imidazo[4,5-b]pyridin-3-yl)phenyl)azetidine-1-carbonyl)benzoic acid]
3 | > 500 | > 500 | Nc1ncccc1-c1nc2ccc(C(F)(F)F)cc2n1-c1ccc(CNC(=O)c2cccc(CC(=O)O)c2)cc1 [Compound 107, 2-(3-((4-(2-(2-aminopyridin-3-yl)-6-(trifluoromethyl)-1H-benzo[d]imidazol-1-yl)benzyl)carbamoyl)phenyl) acetic acid]
4 | < 50 | < 500 | Cc1cc(C(=O)Nc2ccc(-n3c(-c4cccnc4N)nc4ccc(-c5ccccc5)nc43)cn2)ccc1C(=O)O [Compound 118, 4-((5-(2-(2-aminopyridin-3-yl)-5-phenyl-3H-imidazo[4,5-b]pyridin-3-yl)pyridin-2-yl)carbamoyl)-2-methylbenzoic acid]
5 | < 50 | < 500 | Nc1ncccc1-c1nc2ccc(-c3ccccc3)nc2n1-c1ccc(NC(=O)c2cccc(CC(=O)O)c2)cc1 [Compound 56, 2-(3-((4-(2-(2-aminopyridin-3-yl)-5-phenyl-3H-imidazo[4,5-b]pyridin-3-yl)phenyl)carbamoyl)phenyl)acetic acid]
6 | 200 to 500 | < 500 | CC(c1ccc(C(=O)O)cc1)N1CC(c2ccc(-n3c(-c4cccnc4N)nc4ccc(-c5ccccc5)nc43)cc2F)C1 (stereo not drawn) [Compound 166, 4-(1-(3-(4-(2-(2-aminopyridin-3-yl)-5-phenyl-3H-imidazo[4,5-b]pyridin-3-yl)-2-fluorophenyl)azetidin-1-yl)ethyl)benzoic acid]
7 | < 50 | < 500 | Nc1ncccc1-c1nc2ccc(-c3ccccc3)nc2n1-c1ccc(CNC(=O)c2cc(C(=O)O)ccc2F)cc1 [Compound 23, 3-((4-(2-(2-aminopyridin-3-yl)-5-phenyl-3H-imidazo[4,5-b]pyridin-3-yl)benzyl)carbamoyl)-4-fluorobenzoic acid]
8 | > 500 | < 500 | C[C@@H](c1ccc(C(=O)O)cc1)N1CC(c2ccc(-n3c(-c4cccnc4N)nc4ccc(-c5ccccc5)nc43)cc2)C1 (single isomer, unassigned) [Compound 126]
9 | 50 to 200 | < 500 | Cc1c(C(=O)O)cccc1C(=O)N1CC(c2ccc(-n3c(-c4cccnc4N)nc4ccc(-c5ccccc5)nc43)cc2)C1 [Compound 77, 3-(3-(4-(2-(2-aminopyridin-3-yl)-5-phenyl-3H-imidazo[4,5-b]pyridin-3-yl)phenyl)azetidine-1-carbonyl)-2-methylbenzoic acid]
10 | > 500 | < 500 | C[C@@H](c1ccc(C(=O)O)cc1C(F)(F)F)N1CC(c2ccc(-n3c(-c4cccnc4N)nc4ccc(-c5ccccc5)nc43)cc2)C1 [Compound 164]
11 | 200 to 500 | < 500 | Cc1cc(C(=O)O)ccc1C(=O)Nc1ccc(-n2c(-c3cccnc3N)nc3ccc(-c4ccccc4)nc32)cn1 [Compound 63, 4-[[5-[2-(2-amino-3-pyridyl)-5-phenyl-imidazo[4,5-b]pyridin-3-yl]-2-pyridyl]carbamoyl]-3-methyl-benzoic acid]
12 | > 500 | > 500 | COC(=O)Cc1cccc(C(=O)NCc2ccc(-n3c(-c4cccnc4N)nc4cccnc43)cc2)c1 [Compound 100, methyl 2-(3-((4-(2-(2-aminopyridin-3-yl)-3H-imidazo[4,5-b]pyridin-3-yl)benzyl)carbamoyl)phenyl)acetate]
